The ED50 is the dose that gives a 50% effect, or the effect in half of the subjects. One may read the pKi as the Ki on a negative log10 scale, so that one unit is a factor of ten. Read a low pKi as a high Ki.

Experiment [1] has as its system Rattus norvegicus. The experiment in a line: Effect on heart rate in anesthetized Wistar rat assessed as QRS complex time at 1 mg/kg, iv after 1 min by electrocardiography. Type of experiment: functional.
Experiment [2] relates to Rattus norvegicus. The experiment in a line: Effect on heart rate in anesthetized Wistar rat assessed as QRS complex time at 1 mg/kg, iv after 5 mins by electrocardiography. It is filed as functional.
In experiment [3] the test system is Rattus norvegicus. The experiment in a line: Effect on heart rate in anesthetized Wistar rat assessed as QRS complex time at 1 mg/kg, iv after 15 mins by electrocardiography. It is filed as functional.
Experiment [4] deals with Rattus norvegicus. The experiment in a line: Effect on heart rate in anesthetized Wistar rat assessed as Q-T intervals time at 1 mg/kg, iv after 1 min by electrocardiography. It is filed as functional.
Experiment [5] relates to Rattus norvegicus. The experiment in a line: Effect on heart rate in anesthetized Wistar rat assessed as Q-T intervals time at 1 mg/kg, iv after 5 mins by electrocardiography. Type of experiment: functional.
Experiment [6] deals with Rattus norvegicus. The experiment in a line: Effect on heart rate in anesthetized Wistar rat assessed as Q-T intervals time at 1 mg/kg, iv after 15 mins by electrocardiography. Type of experiment: functional.
In experiment [7] the test system is Rattus norvegicus. The experiment in a line: Effect on heart rate in anesthetized Wistar rat assessed as heart beats per min at 1 mg/kg, iv after 1 min by electrocardiography. It is filed as functional.
For experiment [8], the system named is Rattus norvegicus. The experiment in a line: Effect on heart rate in anesthetized Wistar rat assessed as heart beats per min at 1 mg/kg, iv after 5 mins by electrocardiography. Type of experiment: functional.
In experiment [9] the test system is Rattus norvegicus. The experiment in a line: Effect on heart rate in anesthetized Wistar rat assessed as heart beats per min at 1 mg/kg, iv after 15 mins by electrocardiography. It is filed as functional.
Experiment [10] has as its system Rattus norvegicus. The experiment in a line: Antiarrhythmic activity in Wistar rat assessed as inhibition of adrenaline-induced premature ventricular beats at 1 mg/kg, iv administered 15 mins before adrenaline challenge measured after 15 mins by electrocardiography. The following applies: Heart. It is filed as functional.
Experiment [11] in a line: Displacement of [3H]CGP12177 from beta-1 adrenergic receptor in Wistar rat cerebral cortex membrane by liquid scintillation counting. It is filed as tissue-based. Background: Displacement assays read how much labelled ligand stays bound in the presence of the test substance.
The subject of experiment [12] is Rattus norvegicus. The experiment in a line: Effect on heart rate in anesthetized Wistar rat assessed as P-Q intervals time at 1 mg/kg, iv after 1 min by electrocardiography. It is filed as functional.
Experiment [13] concerns Rattus norvegicus. The experiment in a line: Effect on heart rate in anesthetized Wistar rat assessed as P-Q intervals time at 1 mg/kg, iv after 5 mins by electrocardiography. It is filed as functional.
Experiment [14] deals with Rattus norvegicus. The experiment in a line: Effect on heart rate in anesthetized Wistar rat assessed as P-Q intervals time at 1 mg/kg, iv after 15 mins by electrocardiography. Type of experiment: functional.

pKi: −log10 of the molar value.

In the case of `COc1ccccc1OCCNCC(O)COc1cccc2[nH]ccc12` (racemic), the Activity with Rattus norvegicus [1] came out at 28.4 ms; in the experiment with Rattus norvegicus [2], 24.9 ms; with Rattus norvegicus [3] it was 26.9 ms; with Rattus norvegicus [4], 69.2 ms; in the experiment with Rattus norvegicus [5], 69 ms; with Rattus norvegicus [6], 72.8 ms. Moreover, the Activity in the experiment with Rattus norvegicus [7] amounted to 298.7 bpm; in the experiment with Rattus norvegicus [8], 294.5 bpm; with Rattus norvegicus [9], 287.3 bpm; with Rattus norvegicus [12] it was 47.2 ms; in the experiment on Rattus norvegicus [13], 48.1 ms; in the experiment with Rattus norvegicus [14], 46.2 ms. Besides, the ED50 in the experiment with Rattus norvegicus [10] is 0.34 mg/kg. In experiment [11], the pKi was 8.52.
`COc1ccccc1OCCNCC(O)COc1cccc2[nH]c3ccccc3c12` (stereo not drawn) [CARVEDILOL]: the Activity in the experiment with Rattus norvegicus [7] was found to be 345.2 bpm; in the experiment with Rattus norvegicus [8] it was 340.3 bpm; in the experiment on Rattus norvegicus [12], 50 ms. For the same molecule, in the experiment on Rattus norvegicus [10], the ED50 was found to be 0.25 mg/kg.

Values taken from ChEMBL document CHEMBL1154779, “Synthesis and adrenolytic activity of 1-(1H-indol-4-yloxy)-3-(2-(2-methoxy phenoxy)ethylamino)propan-2-ol analogs and its enantiomers. Part 2” (Eur J Med Chem, 2009).
